In the assay the test system is P. aeruginosa (ATCC 9027). The assay can be described thus: Protocol 3 time-dependent antimicrobial activity at one dose level. It counts as cell-based, Pseudomonas aeruginosa. As to the method:
The objective of this protocol is to establish a procedure for determining the antimicrobial activity of indolicidin (e.g., L-IND) at 50 μg/ml over an extended exposure time up to 24 hours at room temperature. It is believed that this procedure more closely mimics the recommended use of lens-care products.
Exposure of the test organism to indolicidin occurs in a buffered solution for up to 24 hours with sampling for viability at different time intervals. Polypropylene 96-well microtiter plates and microcentrifuge tubes are used for exposure and dilution of indolicidin, respectively.
The following materials are used: sterile glass tubes containing 5 ml of Mueller-Hinton Broth (MHB), Mueller-Hinton agar plates, sterile 96-well polypropylene microtiter plates, and sterile polypropylene microcentrifuge tubes.
One or more of the following microorganisms are used in assays using this protocol or modification of this protocol: Pseudomonas aeruginosa (ATCC 9027), Pseudomonas aeruginosa (ATCC 27853), and S. aureus (ATCC 6538).
Five 5 ml of MHB tubes are innoculated with the tester strain(s) from MHA plates and grown overnight at 37° C. on a shaker (180 rpm). A micropipet tip is prewet for at least 2 minutes with 100 μl of the stock solution of indolicidin (e.g., L-IND). The test article is dispensed back in the stock solution vial and the pipette is reset to a volume of 10 μl. Polypropylene microcentrifuge tubes are used to dilute the stock of indolicidin (10 mg/ml) 10-fold in sterile water. To obtain a 10× solution of indolicidin with a dose level equivalent to 50 μg/ml dose level dilute 10 μl of the stock solution of indolicidin in 90 μl of sterile water. (The concentration of indolicidin in the final exposure volume of […] will be 5 μg when 10 μl of the 10× solution is added to 100 μl of bacterial suspension). The overnight cultures are washed twice in sterile saline and resuspend in appropriate buffer. The washed culture is diluted in the appropriate buffer to give an estimated 10^6 CFU/ml. Then 10 μl of the 10× test peptide dilutions are added to a predetermined number of wells in the polypropylene microtiter plate. 100 μl of the bacterial suspension is dispensed to the wells in the polypropylene microtiter plate containing the test chemical and mixed well. Controls include one well each for negative controls, i.e., bacteria only sampled at the initiation of the experiment and at the completion of the experiment. The microtiter plate is covered with aluminum foil to shield the exposure mixture from direct light and placed on the bench top at room temperature. At the end of each time interval, the mixture is diluted in an appropriate sterile buffer and plated for viable counts.
Survival is determined by counting the colonies appearing on plates after overnight incubation at 37° C. The results are expressed as CFU/ml and survival is expressed as the percent of the bacteria that survived the treatment.
The purpose of this experiment was to repeat Experiment 4 under identical conditions using P. aeruginosa 9027, with the exception of one additional time point of 60 minutes. The culture was washed 2 times in 10 mM sodium phosphate buffer, pH 7.4.
Protocol 3 was used with the modifications described above. The test organism was P. aeruginosa 9027. L-indolicidin was tested at 50 μg/ml only. Sterile water was used as a solvent for L-IND. 10 mM sodium phosphate buffer, pH 7.4 was used as a vehicle for exposure of bacteria to L-IND. Final incubation volume in polypropylene microtiter plates was 110 μl, and incubation times were 0, 1, 2, 5 and 15 and 60 minutes at room temperature.
This experiment was a repeat of Experiment 6 using the same exposure protocol, but with a prolonged exposure time, namely 24 hours, and using washed cells of an 18-hour old overnight culture of P. aeruginosa inoculated in Mueller-Hinton broth. Incubation times were 0 and 24 hours, at room temperature. […]

Turning to `CC[C@H](C)[C@H](N)C(=O)N[C@@H](CC(C)C)C(=O)N1CCC[C@H]1C(=O)N[C@@H](Cc1c[nH]c2ccccc12)C(=O)N[C@@H](CCCCN)C(=O)N[C@@H](Cc1c[nH]c2ccccc12)C(=O)N1CCC[C@H]1C(=O)N[C@@H](Cc1c[nH]c2ccccc12)C(=O)N[C@@H](Cc1c[nH]c2ccccc12)C(=O)N1CCC[C@H]1C(=O)N[C@@H](Cc1c[nH]c2ccccc12)C(=O)N[C@@H](CCCNC(=N)N)C(=O)N[C@@H](CCCNC(=N)N)C(N)=O` [L-indolicidin, H2N-ILPWKWPWWPWRR-CONH2], the survival reads like this: (50 μg/ml, 10 mM sodium phosphate buffer, 1, 2 and 5 minutes, room temperature) 100%; (50 μg/ml, 10 mM sodium phosphate buffer, 15 minutes) 19%; (50 μg/ml, 10 mM sodium phosphate buffer, 24 hours, room temperature) “no apparent survival”; (50 μg/ml, 10 mM sodium phosphate buffer, exposure time 0 hr) 1.2 × 10^6 CFU/ml; (50 μg/ml, 10 mM sodium phosphate buffer, exposure time 1 hr) 6.5 × 10^5 CFU/ml; (50 μg/ml, 10 mM sodium phosphate buffer, exposure time 2 hr) 1.1 × 10^4 CFU/ml. Further, the survival runs as follows: (50 μg/ml, 10 mM sodium phosphate buffer, exposure time 4 hr) 0 CFU/ml; (50 μg/ml, 10 mM sodium phosphate buffer, exposure time 6 hr) 0 CFU/ml; (50 μg/ml, 10 mM sodium phosphate buffer, exposure time 12 hr) 0 CFU/ml; (50 μg/ml, 10 mM sodium phosphate buffer, up to 15 minutes) 100%; (50 μg/ml, 100 mM sodium phosphate buffer pH 7.4, all time points 0-24 hours) “no survival”; (50 μ/ml, 10 mM sodium phosphate buffer, after 4 hours exposure) “no detectable survival”. Also, the survival reduction (50 μg/ml, 10 mM sodium phosphate buffer, 60 min) was approximately 2 logs. The compound also gave a log cell reduction (50 μg/ml, 10 mM sodium phosphate buffer, as early as after 1 minute exposure, initial 2.0×10^6 CFU/ml) of approximately 6 log. Moreover, the viability decrease entry (50 μg/ml, 100 mM sodium phosphate buffer, 1 and 2 minutes) was “about 1 log”. For the setting “50 μg/ml, 100 mM sodium phosphate buffer, 15 and 60 minutes”, the colonies on plates result was “No colonies”. Further, the “colonies on plate seeded with 0.1 ml undiluted exposure mixture” value (50 μg/ml, 100 mM sodium phosphate buffer, 5 minutes) is 34 colonies. Also, the “Bacterial growth, Buffer and L-indolicidin 50 μg/ml” value (100 mM sodium phosphate buffer, incubation time 0 hr) was determined as 0; the “Bacterial growth, Buffer and L-indolicidin 50 μg/ml” value (100 mM sodium phosphate buffer, incubation time 24 hr) came out at 0.

Source of the values: patent US6482799B1, “Self-preserving multipurpose ophthalmic solutions incorporating a polypeptide antimicrobial” (The Regents of the University of California, priority 1999, dated 2002).
